Laboratory results from patent US12258327B2, “5-membered heteroaryl-containing aminopyridine compounds as EGFR inhibitors” (YUHAN CORPORATION, priority 2021, dated 2025).
Like-named read-outs stand apart in the source and are kept apart here.

Assays:
[1] = target: EGFR del19/T790M/C797S (Homo sapiens, UniProt P00533, C797S/DEL746-750/T790M); test: Biochemical EGFR kinase assay (Lance Ultra TR-FRET), triple mutant del19/T790M/C797S
How it was run: (§1)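 Kinase activity is measured by TR-FRET phosphopeptide detection. Compounds span 0.003 μM to 10 μM; the 1 h reaction at room temperature is quenched with EDTA, then labelled antibody (2 nM) is incubated 60 min before reading.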

[2] = target: EGFR L858R/T790M/C797S (Homo sapiens, UniProt P00533, C797S/L858R/T790M); test: Biochemical EGFR kinase assay (Lance Ultra TR-FRET), triple mutant L858R/T790M/C797S
Sequence of EGFR L858R/T790M/C797S (P00533 25-1210 T790M/C797S/L858R): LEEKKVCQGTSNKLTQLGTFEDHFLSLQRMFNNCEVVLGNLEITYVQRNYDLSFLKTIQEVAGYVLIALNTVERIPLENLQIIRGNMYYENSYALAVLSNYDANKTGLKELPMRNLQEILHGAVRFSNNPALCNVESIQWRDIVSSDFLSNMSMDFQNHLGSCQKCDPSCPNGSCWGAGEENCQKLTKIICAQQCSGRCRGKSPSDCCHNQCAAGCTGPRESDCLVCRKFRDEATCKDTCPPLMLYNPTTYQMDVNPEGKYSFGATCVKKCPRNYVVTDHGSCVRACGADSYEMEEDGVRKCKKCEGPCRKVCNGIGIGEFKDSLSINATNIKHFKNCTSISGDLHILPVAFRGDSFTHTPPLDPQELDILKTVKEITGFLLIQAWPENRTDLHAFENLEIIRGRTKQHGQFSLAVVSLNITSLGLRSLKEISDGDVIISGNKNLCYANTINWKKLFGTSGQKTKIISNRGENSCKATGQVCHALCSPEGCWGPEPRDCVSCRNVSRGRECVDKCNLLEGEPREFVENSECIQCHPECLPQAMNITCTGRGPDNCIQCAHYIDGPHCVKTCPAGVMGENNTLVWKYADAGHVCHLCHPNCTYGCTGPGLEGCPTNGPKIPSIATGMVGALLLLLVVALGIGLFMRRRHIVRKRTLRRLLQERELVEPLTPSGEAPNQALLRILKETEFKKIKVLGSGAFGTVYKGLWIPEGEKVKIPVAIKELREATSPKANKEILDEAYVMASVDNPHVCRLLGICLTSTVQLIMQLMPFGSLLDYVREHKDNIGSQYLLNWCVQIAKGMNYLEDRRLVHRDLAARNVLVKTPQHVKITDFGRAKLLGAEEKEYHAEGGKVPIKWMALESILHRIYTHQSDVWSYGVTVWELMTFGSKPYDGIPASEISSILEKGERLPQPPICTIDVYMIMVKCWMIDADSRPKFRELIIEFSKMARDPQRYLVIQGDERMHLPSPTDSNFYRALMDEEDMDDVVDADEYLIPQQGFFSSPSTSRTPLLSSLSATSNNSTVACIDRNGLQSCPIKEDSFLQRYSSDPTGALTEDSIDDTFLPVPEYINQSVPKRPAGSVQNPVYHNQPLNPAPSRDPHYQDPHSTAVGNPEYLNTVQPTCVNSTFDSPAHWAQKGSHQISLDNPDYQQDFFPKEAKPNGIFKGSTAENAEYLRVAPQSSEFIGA
How it was run: as §1

[3] = target: EGFR del19/C797S (Homo sapiens, UniProt P00533, C797S/DEL746-750); test: Biochemical EGFR kinase assay (Lance Ultra TR-FRET), double mutant del19/C797S
How it was run: as §1

[4] = target: EGFR L858R/C797S (Homo sapiens, UniProt P00533, C797S/L858R); test: Biochemical EGFR kinase assay (Lance Ultra TR-FRET), double mutant L858R/C797S
Sequence of EGFR L858R/C797S (P00533 25-1210 C797S/L858R): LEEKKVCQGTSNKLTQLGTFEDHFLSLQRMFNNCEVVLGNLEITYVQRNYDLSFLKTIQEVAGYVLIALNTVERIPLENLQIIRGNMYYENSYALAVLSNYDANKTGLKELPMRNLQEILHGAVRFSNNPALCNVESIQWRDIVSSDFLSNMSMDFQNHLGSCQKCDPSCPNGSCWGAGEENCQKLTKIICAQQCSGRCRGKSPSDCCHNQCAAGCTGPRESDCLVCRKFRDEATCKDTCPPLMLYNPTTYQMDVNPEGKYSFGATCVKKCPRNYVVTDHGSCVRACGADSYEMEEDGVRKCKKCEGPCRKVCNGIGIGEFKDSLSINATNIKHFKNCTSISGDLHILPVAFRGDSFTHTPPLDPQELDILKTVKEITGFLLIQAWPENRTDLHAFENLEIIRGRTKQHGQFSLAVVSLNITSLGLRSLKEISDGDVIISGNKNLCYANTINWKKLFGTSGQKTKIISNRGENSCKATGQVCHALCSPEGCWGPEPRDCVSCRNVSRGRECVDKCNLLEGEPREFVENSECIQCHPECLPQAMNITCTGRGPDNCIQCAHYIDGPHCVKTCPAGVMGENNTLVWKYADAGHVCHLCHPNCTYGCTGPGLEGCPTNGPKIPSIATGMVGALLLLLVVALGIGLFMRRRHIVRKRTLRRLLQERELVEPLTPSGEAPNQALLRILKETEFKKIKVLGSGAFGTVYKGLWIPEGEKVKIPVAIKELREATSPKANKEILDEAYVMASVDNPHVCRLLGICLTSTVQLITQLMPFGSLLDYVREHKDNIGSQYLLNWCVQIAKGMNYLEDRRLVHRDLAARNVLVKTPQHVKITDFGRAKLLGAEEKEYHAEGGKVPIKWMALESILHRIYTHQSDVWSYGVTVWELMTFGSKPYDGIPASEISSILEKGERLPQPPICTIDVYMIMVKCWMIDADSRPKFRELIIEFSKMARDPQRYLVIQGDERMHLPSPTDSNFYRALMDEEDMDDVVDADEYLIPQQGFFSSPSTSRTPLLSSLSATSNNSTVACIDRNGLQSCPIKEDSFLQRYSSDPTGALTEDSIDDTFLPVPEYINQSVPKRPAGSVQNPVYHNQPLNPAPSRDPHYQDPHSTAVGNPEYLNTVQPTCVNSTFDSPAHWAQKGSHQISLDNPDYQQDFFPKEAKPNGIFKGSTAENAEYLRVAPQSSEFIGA
How it was run: as §1

[5] = target: EGFR wildtype (WT) (Homo sapiens, UniProt P00533); test: Biochemical EGFR kinase assay (Lance Ultra TR-FRET), wildtype
Sequence of EGFR wildtype (WT) (P00533 25-1210): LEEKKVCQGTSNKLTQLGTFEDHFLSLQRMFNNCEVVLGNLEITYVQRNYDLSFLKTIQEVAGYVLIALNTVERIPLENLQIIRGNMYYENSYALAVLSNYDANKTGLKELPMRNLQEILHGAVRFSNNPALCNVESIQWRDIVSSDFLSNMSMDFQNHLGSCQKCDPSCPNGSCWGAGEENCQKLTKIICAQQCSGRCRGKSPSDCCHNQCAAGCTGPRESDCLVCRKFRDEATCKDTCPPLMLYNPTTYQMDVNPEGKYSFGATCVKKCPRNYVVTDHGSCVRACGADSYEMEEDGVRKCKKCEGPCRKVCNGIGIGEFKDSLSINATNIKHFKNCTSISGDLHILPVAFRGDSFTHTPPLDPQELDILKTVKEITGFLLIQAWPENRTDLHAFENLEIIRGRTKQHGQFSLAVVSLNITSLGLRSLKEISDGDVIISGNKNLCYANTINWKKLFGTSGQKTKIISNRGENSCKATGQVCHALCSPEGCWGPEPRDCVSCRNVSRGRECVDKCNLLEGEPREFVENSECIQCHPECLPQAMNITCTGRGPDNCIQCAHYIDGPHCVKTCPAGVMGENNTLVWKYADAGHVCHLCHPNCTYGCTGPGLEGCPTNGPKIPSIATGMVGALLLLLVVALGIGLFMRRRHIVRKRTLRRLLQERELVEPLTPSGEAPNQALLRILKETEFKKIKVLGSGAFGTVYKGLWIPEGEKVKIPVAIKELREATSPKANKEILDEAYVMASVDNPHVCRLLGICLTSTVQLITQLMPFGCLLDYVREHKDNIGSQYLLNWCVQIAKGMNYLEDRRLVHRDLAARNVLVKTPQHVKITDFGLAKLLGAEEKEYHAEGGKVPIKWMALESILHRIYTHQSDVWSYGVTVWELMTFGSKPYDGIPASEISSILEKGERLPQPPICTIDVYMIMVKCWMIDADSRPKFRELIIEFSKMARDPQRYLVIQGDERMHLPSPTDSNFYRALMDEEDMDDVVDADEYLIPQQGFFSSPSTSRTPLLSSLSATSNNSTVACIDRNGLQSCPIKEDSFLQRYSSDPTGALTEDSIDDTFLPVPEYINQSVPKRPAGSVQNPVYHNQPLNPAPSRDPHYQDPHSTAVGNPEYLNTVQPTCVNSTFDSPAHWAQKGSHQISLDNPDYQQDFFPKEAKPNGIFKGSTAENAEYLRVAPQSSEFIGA
How it was run: as §1

[6] = IC50 del19/T790M/C797S (nM) 100 μM ATP, 100 μM ATP
[7] = Km ATP, read-out: IC50 del19/T790M/C797S (nM) Km ATP
[8] = IC50 L858R/T790M/C797S (nM) 100 μM ATP, 100 μM ATP
[9] = Km ATP, read-out: IC50 L858R/T790M/C797S (nM) Km ATP
[10] = IC50 del19/C797S (nM) 100 μM ATP, 100 μM ATP
[11] = IC50 L858R/C797S (nM) 100 μM ATP, 100 μM ATP
[12] = Km ATP, read-out: IC50 L858R/C797S (nM) Km ATP
[13] = IC50 WT (nM) 100 μM ATP, 100 μM ATP
[14] = Km ATP, read-out: IC50 WT (nM) Km ATP
[15] = Km ATP, read-out: IC50 del19/C797S (nM) Km ATP

Sequence of EGFR del19/T790M/C797S (P00533 with tags, fused parts or gaps DEL746-750/T790M/C797S): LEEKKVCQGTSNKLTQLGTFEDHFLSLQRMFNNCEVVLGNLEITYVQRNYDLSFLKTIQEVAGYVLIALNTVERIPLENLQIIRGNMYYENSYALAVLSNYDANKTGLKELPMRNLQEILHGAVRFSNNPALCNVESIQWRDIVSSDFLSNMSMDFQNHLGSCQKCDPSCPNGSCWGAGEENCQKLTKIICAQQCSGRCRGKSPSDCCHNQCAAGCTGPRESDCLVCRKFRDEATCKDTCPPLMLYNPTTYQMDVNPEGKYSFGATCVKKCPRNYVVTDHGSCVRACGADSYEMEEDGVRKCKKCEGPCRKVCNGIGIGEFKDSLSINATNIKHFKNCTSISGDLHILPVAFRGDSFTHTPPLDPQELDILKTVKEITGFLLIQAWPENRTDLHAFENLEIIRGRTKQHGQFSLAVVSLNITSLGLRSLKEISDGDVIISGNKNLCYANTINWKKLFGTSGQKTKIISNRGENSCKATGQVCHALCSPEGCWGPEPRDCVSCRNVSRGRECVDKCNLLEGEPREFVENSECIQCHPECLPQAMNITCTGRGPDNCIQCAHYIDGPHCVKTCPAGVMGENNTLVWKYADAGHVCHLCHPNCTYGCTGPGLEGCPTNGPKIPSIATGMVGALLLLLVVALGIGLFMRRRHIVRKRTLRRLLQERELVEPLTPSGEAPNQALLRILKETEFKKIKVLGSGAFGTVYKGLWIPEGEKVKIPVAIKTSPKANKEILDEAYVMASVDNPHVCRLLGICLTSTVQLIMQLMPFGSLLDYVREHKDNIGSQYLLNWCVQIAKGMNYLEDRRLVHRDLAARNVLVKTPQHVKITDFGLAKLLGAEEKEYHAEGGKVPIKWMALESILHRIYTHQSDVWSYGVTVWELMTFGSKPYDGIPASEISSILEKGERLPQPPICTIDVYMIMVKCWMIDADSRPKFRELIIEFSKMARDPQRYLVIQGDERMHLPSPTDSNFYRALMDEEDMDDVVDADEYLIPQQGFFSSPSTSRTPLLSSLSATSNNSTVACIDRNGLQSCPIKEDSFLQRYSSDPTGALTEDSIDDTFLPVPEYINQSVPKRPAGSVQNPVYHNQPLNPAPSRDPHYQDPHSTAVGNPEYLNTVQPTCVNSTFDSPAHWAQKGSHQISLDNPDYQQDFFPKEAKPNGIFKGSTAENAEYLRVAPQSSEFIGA

| IC50 [1, 6] | IC50 [1, 7] | IC50 [2, 8] | IC50 [2, 9] | IC50 [3, 10] | IC50 [4, 11] | IC50 [4, 12] | IC50 [5, 13] | IC50 [5, 14] | IC50 [3, 15] | SMILES | IC50 ([1]; read-out: IC50 del19/T790M/C797S (nM) 100 μM ATP, 100 μM ATP) | IC50 ([2]; read-out: IC50 L858R/T790M/C797S (nM) 100 μM ATP, 100 μM ATP) | IC50 ([3]; read-out: IC50 del19/C797S (nM) 100 μM ATP, 100 μM ATP) | IC50 ([5]; read-out: IC50 WT (nM) 100 μM ATP, 100 μM ATP) |
| --- | --- | --- | --- | --- | --- | --- | --- | --- | --- | --- | --- | --- | --- | --- |
| 1.1 nM | 0.9 nM | 1.2 nM | 0.4 nM | 2.1 nM | 21.5 nM | 4.4 nM | > 10000 nM | 22.4 nM | – | O=S(=O)(C1CC1)n1cc(-c2nccc(Nc3cc(NC[C@H]4CC[C@H](CO)CC4)c(-c4ccn(C(F)F)n4)cn3)n2)cn1 [Example 22, ((1r,4r)-4-(((2-((2-(1-(Cyclopropylsulfonyl)-1H-pyrazol-4-yl)pyrimidin-4-yl)amino)-5-(1-(difluoromethyl)-1H-pyrazol-3-yl)pyridin-4-yl)amino)methyl)cyclohexyl)methanol] | – | – | – | – |
| 1.3 nM | 0.7 nM | 1 nM | 0.4 nM | 0.9 nM | 7.4 nM | 1.8 nM | > 10000 nM | 6.9 nM | 0.8 nM | O=S(=O)(C1CC1)n1cc(-c2nccc(Nc3cc(N[C@H]4CC[C@@H](NCC(F)F)CC4)c(-c4ccn(C(F)F)n4)cn3)n2)cn1 [Example 23, N^2-(2-(1-(Cyclopropylsulfonyl)-1H-pyrazol-4-yl)pyrimidin-4-yl)-N^4-((1s,4s)-4-((2,2-difluoroethyl)amino)cyclohexyl)-5-(1-(difluoromethyl)-1H-pyrazol-3-yl)pyridine-2,4-diamine] | – | – | – | – |
| 0.5 nM | 0.3 nM | 0.3 nM | 0.2 nM | 0.8 nM | 14.3 nM | 2 nM | > 10000 nM | 6.9 nM | 0.7 nM | CNC(=O)[C@H]1CC[C@@H](Nc2cc(Nc3ccnc(-c4cnn(S(=O)(=O)C5CC5)c4)n3)ncc2-c2ccn(C(F)F)n2)CC1 [Example 24, (1s,4s)-4-((2-((2-(1-(Cyclopropylsulfonyl)-1H-pyrazol-4-yl)pyrimidin-4-yl)amino)-5-(1-(difluoromethyl)-1H-pyrazol-3-yl)pyridin-4-yl)amino)-N-methylcyclohexane-1-carboxamide] | – | – | – | – |
| 0.2 nM | 0.1 nM | 0.3 nM | 0.1 nM | 1.8 nM | 26.5 nM | 2.3 nM | 3740 nM | 6.7 nM | 1.3 nM | O=S(=O)(C1CC1)n1cc(-c2nccc(Nc3cc(NCC4CC5(CNC5)C4)c(-c4ccn(C(F)F)n4)cn3)n2)cn1 [Example 26, N^4-((2-Azaspiro[3.3]heptan-6-yl)methyl)-N^2-(2-(1-(cyclopropylsulfonyl)-1H-pyrazol-4-yl)pyrimidin-4-yl)-5-(1-(difluoromethyl)-1H-pyrazol-3-yl)pyridine-2,4-diamine] | – | – | – | – |
| 0.6 nM | 0.7 nM | 0.4 nM | 0.2 nM | 0.3 nM | 2.2 nM | 0.5 nM | 162 nM | 0.7 nM | 0.2 nM | O=S(=O)(C1CC1)n1cc(-c2nccc(Nc3cc(NC4CCC5(CC4)CNC5)c(-c4ccn(C(F)F)n4)cn3)n2)cn1 [Example 27, N^2-(2-(1-(Cyclopropylsulfonyl)-1H-pyrazol-4-yl)pyrimidin-4-yl)-5-(1-(difluoromethyl)-1H-pyrazol-3-yl)-N^4-(2-azaspiro[3.5]nonan-7-yl)pyridine-2,4-diamine] | – | – | – | – |
| 1.1 nM | 0.9 nM | 5.5 nM | 0.8 nM | 62.7 nM | 598 nM | 21.8 nM | > 10000 nM | 241 nM | 95.7 nM | O=S(=O)(C1CC1)n1cc(-c2nccc(Nc3cc(NC4CCCCC4O)c(-c4ccn(C(F)F)n4)cn3)n2)cn1 (centres unmarked) [Example 28, 2-((2-((2-(1-(Cyclopropylsulfonyl)-1H-pyrazol-4-yl)pyrimidin-4-yl)amino)-5-(1-(difluoromethyl)-1H-pyrazol-3-yl)pyridin-4-yl)amino)cyclohexan-1-ol] | – | – | – | – |
| 2.4 nM | 1.1 nM | 7.7 nM | 1 nM | 77.1 nM | 590 nM | 26.2 nM | > 10000 nM | 218 nM | 89.9 nM | O=S(=O)(C1CC1)n1cc(-c2nccc(Nc3cc(NC4CCCC4O)c(-c4ccn(C(F)F)n4)cn3)n2)cn1 (centres unmarked) [Example 29, 2-((2-((2-(1-(Cyclopropylsulfonyl)-1H-pyrazol-4-yl)pyrimidin-4-yl)amino)-5-(1-(difluoromethyl)-1H-pyrazol-3-yl)pyridin-4-yl)amino)cyclopentan-1-ol] | – | – | – | – |
| 2.4 nM | 0.6 nM | 2.8 nM | 0.3 nM | 2.2 nM | 41.3 nM | – | > 10000 nM | 15.4 nM | 0.5 nM | O=S(=O)(C1CC1)n1cc(-c2nccc(Nc3cc(NC[C@H]4CC[C@@H](O)CC4)c(-c4ccn(C(F)F)n4)cn3)n2)cn1 [Example 30, (1s,4s)-4-(((2-((2-(1-(Cyclopropylsulfonyl)-1H-pyrazol-4-yl)pyrimidin-4-yl)amino)-5-(1-(difluoromethyl)-1H-pyrazol-3-yl)pyridin-4-yl)amino)methyl)cyclohexan-1-ol] | – | – | – | – |
| 1.3 nM | 0.4 nM | – | 0.2 nM | 1.3 nM | 18.7 nM | 1.3 nM | > 10000 nM | 10.5 nM | 0.5 nM | O=S(=O)(C1CC1)n1cc(-c2nccc(Nc3cc(NC[C@H]4CC[C@H](O)CC4)c(-c4ccn(C(F)F)n4)cn3)n2)cn1 [Example 31, (1r,4r)-4-(((2-((2-(1-(Cyclopropylsulfonyl)-1H-pyrazol-4-yl)pyrimidin-4-yl)amino)-5-(1-(difluoromethyl)-1H-pyrazol-3-yl)pyridin-4-yl)amino)methyl)cyclohexan-1-ol] | – | – | – | – |
| 1.6 nM | 0.5 nM | 2.5 nM | 0.2 nM | 2.5 nM | 45.2 nM | 1.9 nM | > 10000 nM | 18.5 nM | 1 nM | O=S(=O)(C1CC1)n1cc(-c2nccc(Nc3cc(NCC4CCCC(O)C4)c(-c4ccn(C(F)F)n4)cn3)n2)cn1 (centres unmarked) [Example 32, 3-(((2-((2-(1-(Cyclopropylsulfonyl)-1H-pyrazol-4-yl)pyrimidin-4-yl)amino)-5-(1-(difluoromethyl)-1H-pyrazol-3-yl)pyridin-4-yl)amino)methyl)cyclohexan-1-ol] | – | – | – | – |
| 1 nM | 0.5 nM | 1.4 nM | 0.5 nM | – | 13.5 nM | 0.7 nM | > 10000 nM | 7 nM | 0.5 nM | O=S(=O)(C1CC1)n1cc(-c2nccc(Nc3cc(NCC4CCC(O)C4)c(-c4ccn(C(F)F)n4)cn3)n2)cn1 (centres unmarked) [Example 33, 3-(((2-((2-(1-(Cyclopropylsulfonyl)-1H-pyrazol-4-yl)pyrimidin-4-yl)amino)-5-(1-(difluoromethyl)-1H-pyrazol-3-yl)pyridin-4-yl)amino)methyl)cyclopentan-1-ol] | – | – | – | – |
| 0.9 nM | 0.4 nM | 1.6 nM | 0.2 nM | 4.2 nM | 53.3 nM | 2 nM | > 10000 nM | 19.4 nM | 1.9 nM | O=S(=O)(C1CC1)n1cc(-c2nccc(Nc3cc(NC[C@H]4C[C@H](O)C4)c(-c4ccn(C(F)F)n4)cn3)n2)cn1 [Example 34, (1r,3r)-3-(((2-((2-(1-(Cyclopropylsulfonyl)-1H-pyrazol-4-yl)pyrimidin-4-yl)amino)-5-(1-(difluoromethyl)-1H-pyrazol-3-yl)pyridin-4-yl)amino)methyl)cyclobutan-1-ol] | – | – | – | – |

| SMILES | IC50 [1, 6] | IC50 [1, 7] | IC50 [2, 8] | IC50 [2, 9] | IC50 [3, 10] | IC50 [4, 11] | IC50 [4, 12] | IC50 [5, 13] | IC50 [5, 14] | IC50 [3, 15] | IC50 ([1]; read-out: IC50 del19/T790M/C797S (nM) 100 μM ATP, 100 μM ATP) | IC50 ([2]; read-out: IC50 L858R/T790M/C797S (nM) 100 μM ATP, 100 μM ATP) | IC50 ([3]; read-out: IC50 del19/C797S (nM) 100 μM ATP, 100 μM ATP) | IC50 ([5]; read-out: IC50 WT (nM) 100 μM ATP, 100 μM ATP) |
| --- | --- | --- | --- | --- | --- | --- | --- | --- | --- | --- | --- | --- | --- | --- |
| CN(C)[C@H]1CC[C@H](CNc2cc(Nc3ccnc(-c4cnn(S(=O)(=O)C5CC5)c4)n3)ncc2-c2ccn(C(F)F)n2)CC1 [Example 25, N^2-(2-(1-(Cyclopropylsulfonyl)-1H-pyrazol-4-yl)pyrimidin-4-yl)-5-(1-(difluoromethyl)-1H-pyrazol-3-yl)-N^4-(((1r,4r)-4-(dimethylamino)cyclohexyl)methyl)pyridine-2,4-diamine] | – | 0.1 nM | – | 0.02 nM | – | – | 0.3 nM | – | 2.7 nM | 0.2 nM | 0.1 nM | 0.1 nM | 0.3 nM | 2050 nM |
